# Test results published in US11198869B2, “Angelman syndrome antisense treatment” (The Texas A&M University System, priority 2017, dated 2021).
# Where two headings read alike, the source gives them in different places.
# Columns and labels:
# SNORD115 = SNORD115 steady state RNA (qRT-PCR) in GABAergic iPSC-derived neurons; conditions: 10-point dose curve 1 nM-30 μM; 14 DIV to 20 DIV
# IPW = experiment: RNA-sequencing of Angelman syndrome iPSC neurons: IPW; assay type: cell-based, human; conditions: 30 μM, RNA-seq; for Difference, IPW RNA level relative to vehicle: six days post-treatment
# Description: RNA was isolated using Qiagen RNAeasy Plus (74136, Qiagen, Hilden, Germany). RNA concentration was determined using Qubit Fluorometric Quantitation (Thermo Fisher Scientific) and RNA quality was assessed using a 4200 Agilent TapeStation (Agilent, Santa Clara, Calif.). RNA-sequencing libraries were generated using the Illumina TruSeq Stranded Total RNA kit (20020597, Illumina, Inc., San Diego, Calif.) according to the manufacturer's protocol. 75 base-pair paired-end sequencing was performed using a NextSeq 500 (IIlumina, San Diego, Calif.) at the Texas A&M Institute for Genome Sciences and Society Genomics core. Raw sequencing reads were processed using CASAVA. The resulting FASTQ sequences were examined using FASTQC.
# Angelman syndrome induced pluripotent stem cells derived neurons Angelman syndrome iPS cells (AG1-0 iPSCs) (ECN001, Kerafast, Boston, Mass.) were co-cultured on irradiated murine embryonic fibroblasts in human embryonic stem cell medium [DMEM/F12 (11330-057, Gibco Biosciences, Dublin, Ireland), 20% Knockout Serum Replacement (10828-028, Thermo Fisher Scientific), 1× Non-essential amino acids, 2 mM L-glutamine, […] 2-Mercaptoethanol, and 4 μg/mL basic Fibroblast Growth Factor]. […]
# To determine whether ASO-4.4.PS.L and ASO-6.1.PO-1.O affect the levels of RNA transcripts encoded by the PWS polycistronic transcript, RNA-sequencing was performed on AS iPS cells treated with each ASO and the steady state RNA levels of SNURF, SNRPN, the SNORD116 host-gene transcript (SNHG116), the SNORD116 snoRNAs, IPW, the SNORD115 host-gene transcript (SNHG115), the SNORD115 snoRNAs, and UBE3A-AS were quantified. UBE3A steady state RNA levels were also measured. […]
# Normalized FPKM (fragments per […] per million) values of the RefSeq gene annotation will be estimated using Cuffnorm with the default settings and the following option: −u. The FPKM values of each gene annotation was determined for each sample from the output file and used for descriptive and inferential statistics.
# UBE3A-AS = UBE3A-AS steady state RNA (qRT-PCR) in glutamatergic iPSC-derived neurons; assay type: cell-based, human; conditions: for 30 μM (Mean), normalized UBE3A-AS RNA level relative to vehicle / Emax Estimate (normalized UBE3A-AS RNA level relative to vehicle): 14 DIV to 20 DIV
# Description: ASO-4 and ASO-6.1 were also examined in glutamatergic iPSC-derived neurons. Glutamatergic iPSC-derived neurons were treated at 14 DIV with a 10-point ½ log dose response curve of ASO-4 and ASO-6.1 [1 nM, 3 nM, 10 nM, 30 nM, 100 nM, 300 nM, 1 μM, 3 μM, 10 μM, and 30 μM (n=3)]. At 20 DIV, the IC50 and Emax of each ASO was estimated as described above (FIG. 5E-F and Table 15).
# GABAergic and glutamatergic induced pluripotent stem cell (iPSC) derived neural precursor cells (NRC-100-010-001 and GNC-301-030-001, Cellular Dynamics International, Madison Wis.) were differentiated into neurons according to the manufactures protocol. Briefly, neural precursor cells were thawed and resuspended in chemically defined medium and added to sterile-culture plates coated with poly-D-lysine and laminin. The medium was replaced 24 hr after plating and then one-half of the medium was replaced every 3-5 days afterwards.
# For cultured iPSC-derived neurons, RNA isolation and cDNA synthesis were performed using the Cell-to-CT kit (Thermo Fisher Scientific) in a lysate volume of 55 μl.
# The steady state RNA levels of target transcripts were measured using TaqMan quantitative reverse-transcription PCR (qRT-PCR) assays. Total reaction volume was 10 uL, including 2 μl of cDNA, 1× Gene Expression Master mix (4369016, Thermo Fisher Scientific, Waltham, Mass.), and 1× TaqMan primer assay (Thermo Fisher Scientific). Cycling conditions were 2 minutes at 50° C., 10 minutes at 95° C., and 40 cycles of 15 seconds at 95° C. and 1 minute at 60° C., with readings taken at the 60° C. step of every cycle. Reactions were run on a BIO-RAD T1000 CFX96 thermocycler (Bio-Rad Laboratories, Hercules Calif.), with internal control (PPIA, Hs99999904_m1, Thermo Fisher Scientific) and target [UBE3A-AS, Hs01372957_m1; SNORD116-11, Hs04275268_gH; SNORD115, Hs04275288_gH; IPW, Hs03455409_s1; SNORD109A/B, AP47WVR (Thermo Fisher Scientific); UBE3A: forward […] (SEQ ID NO:500); reverse: […] (SEQ ID NO:501); and, probe: […] (SEQ ID NO:502)] reactions performed together. Data was retrieved and analyzed with the BIORAD CFX Maestro software (Bio-Rad Laboratories). Samples with internal control Cq values ≥30 were filtered. Quality of data was visually inspected to identify discrepancies between technical and/or plate replicates. Measurements for inferential statistics and descriptive statistics consist of ΔΔCq values (2^−ΔΔCq=2^−(Cq[target]−Cq[internal control])−(Cq[target]−Cq[internal control])).
# [1] = parallel model, 4 Parameter logistic, read-out: IC50 (M), UBE3A-AS
# [2] = treated 14 DIV, RNA 20 DIV, 10-point dose curve, full model, 4-parameter logistic (Hill), read-out: IC50 Estimate, UBE3A-AS
compound,measurement,setting,value
"CC[C@@]1(O)C(=O)OCc2c1cc1n(c2=O)Cc2cc3c(CN(C)C)c(O)ccc3nc2-1 [Topotecan, reference compound]",effect on SNORD115 RNA levels (in words),SNORD115,"significant effect on SNORD116, IPW, SNORD115, and SNORD109A/B RNA levels that was dose dependent"
"A^L*G^L*A^L*a*t*g*g*c*a*c*a*t*c*t*5mC^L*T^L*T^L*G^L (NNNATGGCACATCTNNNN; LNA gapmer, PS, 5-methylcytosine, chemistry not fully specified) [ASO-4.4.PS.L]",reduction of IPW levels,IPW; effect not significant,1.5 fold
same,"Difference, IPW RNA level relative to vehicle",IPW,−0.49
C^O*U^O*G^O*G^O*t*g*t*c*a*a*c*a*a*g*C^O*C^O*A^O*A^O [ASO-6.1],"30 μM (Mean), normalized UBE3A-AS RNA level relative to vehicle",UBE3A-AS,0.04
same,Emax Estimate (normalized UBE3A-AS RNA level relative to vehicle),UBE3A-AS; 4-parameter logistic (Hill),−0.27
same,IC50,UBE3A-AS; [1],7.8e-07 M
same,IC50,UBE3A-AS; [2],2.44e-07 M
C^O*U^O*G^O*G^O-t*g*t*c*a*a*c*a*a*g-C^O*C^O*A^O*A^o [ASO-6.1.PO-1.O],"Difference, IPW RNA level relative to vehicle",IPW,0.18
U^O*A^O*G^O*A^O*A^O*t*g*g*c*a*c*a*t*c*t*C^O*U^O*U^O*G^O*G^O [ASO-4],"30 μM (Mean), normalized UBE3A-AS RNA level relative to vehicle",UBE3A-AS,0.17
same,Emax Estimate (normalized UBE3A-AS RNA level relative to vehicle),UBE3A-AS; 4-parameter logistic (Hill),−1.45
same,IC50,UBE3A-AS; [1],3.06e-06 M
same,Relative Potency,"UBE3A-AS; parallel model, relative to ASO-4 = 1",1
same,IC50,UBE3A-AS; [2],0.000121 M
same,effect on SNORD115 RNA levels (in words),SNORD115,"significant effect on the RNA levels of IPW, SNORD115, and SNORD109A/B but not in a dose dependent manner"
